# Source: patent publication US20160130278A1 (TAISHO PHARMACEUTICAL CO., LTD, priority 2013, published 2016)
# Biological target: T1, human type 1 glycine transporter (GlyT1) (Homo sapiens, UniProt P48067)
# T1 construct: T98G cells (glioma cells) expressing human type 1 glycine transporter (GlyT1) were used
# T1 sequence (P48067 1-706): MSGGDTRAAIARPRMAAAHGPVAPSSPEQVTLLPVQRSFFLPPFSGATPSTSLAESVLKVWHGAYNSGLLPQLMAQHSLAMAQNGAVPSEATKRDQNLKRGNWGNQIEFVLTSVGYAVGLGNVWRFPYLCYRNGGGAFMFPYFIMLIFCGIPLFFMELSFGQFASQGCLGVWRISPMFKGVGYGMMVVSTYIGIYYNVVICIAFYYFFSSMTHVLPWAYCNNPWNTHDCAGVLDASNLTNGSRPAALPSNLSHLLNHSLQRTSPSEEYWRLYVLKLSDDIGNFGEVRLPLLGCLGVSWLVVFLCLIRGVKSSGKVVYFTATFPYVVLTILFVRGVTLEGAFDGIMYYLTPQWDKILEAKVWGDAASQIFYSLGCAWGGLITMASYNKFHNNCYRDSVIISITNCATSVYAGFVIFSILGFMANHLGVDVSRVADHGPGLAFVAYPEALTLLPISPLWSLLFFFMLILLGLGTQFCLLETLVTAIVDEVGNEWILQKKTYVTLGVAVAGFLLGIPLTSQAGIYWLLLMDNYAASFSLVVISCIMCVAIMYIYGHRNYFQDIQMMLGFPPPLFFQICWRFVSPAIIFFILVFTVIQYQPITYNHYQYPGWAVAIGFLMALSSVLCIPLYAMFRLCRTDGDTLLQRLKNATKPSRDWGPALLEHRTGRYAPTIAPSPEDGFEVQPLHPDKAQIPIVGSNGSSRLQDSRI
# Test: Glycine uptake inhibition experiment ([3H]glycine uptake)
# Assay type: cell-based
# Conditions: GlyT1
# Method: Glycine Uptake Inhibition Experiment
# A glycine uptake experiment was conducted in accordance with the method published in Neuron, 8, 927-935, 1992. In the experiment, T98G cells (glioma cells) expressing human type 1 glycine transporter (GlyT1) were used. The T98G cells were seeded in a 96-well plate at 2.0×10^4 cells/well and cultured overnight in a CO2 incubator. The test substance was dissolved in a 100% DMSO solution and then dissolved in a 10 mM HEPES buffer solution (pH 7.4) containing 150 mM sodium chloride, 1 mM calcium chloride, 5 mM potassium chloride, 1 mM magnesium chloride, 10 mM glucose and 0.2% bovine serum albumin. After removing the cell culture medium, the test substance was subjected to a 10-min pretreatment. Subsequently, the test substance and [^3H] glycine (final concentration: 250 nM) were added to the cells and reaction was performed at room temperature for 15 minutes. After the end of the reaction, the extracellular fluid was aspirated with a manifold to remove excess labeled glycine present outside the cells, and then the cells were lysed with a 0.5 M aqueous sodium hydroxide solution. The glycine content in the cells was determined by measuring the radioactivity in the cell lysate with a liquid scintillation counter. Glycine uptake in the presence of 10 μM ALX5407 was defined as non-specific uptake, and the value calculated by subtracting the amount of the non-specific uptake from the total uptake in the absence of 10 μM ALX5407 was defined as specific uptake. In addition, glycine uptake inhibitory activity (IC50 value) was calculated from an inhibition curve at the concentrations of each test substance ranging from 10^−9 to 10^−5 M. It should be noted that ALX5407 is an HCl salt of N-[(3R)-3-([1,1′-biphenyl]-4-yloxy)-3-(4-fluorophenyl)propyl]-N-methylglycine.
row,Compound,IC50 [nM]
1,"O=C(NC(c1cccc(Cl)c1Cl)C1(O)CCC(F)(F)CC1)c1nccc(C(F)(F)F)c1Cl (single isomer, unassigned) [Compound 137, 3-chloro-N-[(2,3-dichlorophenyl)(4,4-difluoro-1-hydroxycyclohexyl)methyl]-4-(trifluoromethyl)pyridine-2-carboxamide]",62
2,"CCn1cc(-c2cccc(C(NC(=O)c3cccc(Cl)c3Cl)C3(O)CCC(F)(F)CC3)c2)cn1 (single isomer, unassigned) [Compound 144, 2,3-dichloro-N-{(4,4-difluoro-1-hydroxycyclohexyl)[3-(1-ethyl-1H-pyrazol-4-yl)phenyl]methyl}benzamide]",530
3,"CCn1cc(-c2cccc(C(NC(=O)c3cccc(Cl)c3Cl)C3(O)CCC(F)(F)CC3)c2)cn1 (single isomer, unassigned) [Compound 145, 2,3-dichloro-N-{(4,4-difluoro-1-hydroxycyclohexyl)[3-(1-ethyl-1H-pyrazol-4-yl)phenyl]methyl}benzamide]",670
4,"O=C(NC(c1ccccc1Cl)C1(O)CCC(F)(F)CC1)c1nccc(C(F)(F)F)c1Cl (single isomer, unassigned) [Compound 147, 3-chloro-N-[(2-chlorophenyl)(4,4-difluoro-1-hydroxycyclohexyl)methyl]-4-(trifluoromethyl)pyridine-2-carboxamide]",110
5,"CCn1cc(-c2cccc(C(NC(=O)c3cccc(C(F)(F)F)c3C)C3(O)CCC(F)(F)CC3)c2)cn1 (single isomer, unassigned) [Compound 149, N-{(4,4-difluoro-1-hydroxycyclohexyl)[3-(1-ethyl-1H-pyrazol-4-yl)phenyl]methyl}-2-methyl-3-(trifluoromethyl)benzamide]",2600
6,"CCn1cc(-c2cccc(C(NC(=O)c3cccc(C(F)(F)F)c3C)C3(O)CCC(F)(F)CC3)c2)cn1 (single isomer, unassigned) [Compound 150, N-{(4,4-difluoro-1-hydroxycyclohexyl)[3-(1-ethyl-1H-pyrazol-4-yl)phenyl]methyl}-2-methyl-3-(trifluoromethyl)benzamide]",840
7,"CCn1cc(-c2cccc(C(NC(=O)c3cccc(C)c3Cl)C3(O)CCC(F)(F)CC3)c2)cn1 (single isomer, unassigned) [Compound 151, 2-chloro-N-{(4,4-difluoro-1-hydroxycyclohexyl)[3-(1-ethyl-1H-pyrazol-4-yl)phenyl]methyl}-3-methylbenzamide]",3300
8,"CCn1cc(-c2cccc(C(NC(=O)c3cccc(C)c3Cl)C3(O)CCC(F)(F)CC3)c2)cn1 (single isomer, unassigned) [Compound 152, 2-chloro-N-{(4,4-difluoro-1-hydroxycyclohexyl)[3-(1-ethyl-1H-pyrazol-4-yl)phenyl]methyl}-3-methylbenzamide]",1300
9,"O=C(NC(c1ccccc1Cl)C1(O)CCC(F)(F)CC1)c1ccnc(C(F)(F)F)c1Cl (single isomer, unassigned) [Compound 155, 3-chloro-N-[(2-chlorophenyl)(4,4-difluoro-1-hydroxycyclohexyl)methyl]-2-(trifluoromethyl)pyridine-4-carboxamide]",170
10,"O=C(NC(c1ccccc1Cl)C1(O)CCC(F)(F)CC1)c1nccc(C(F)(F)F)c1Cl (single isomer, unassigned) [Compound 156, 3-chloro-N-[(2-chlorophenyl)(4,4-difluoro-1-hydroxycyclohexyl)methyl]-4-(trifluoromethyl)pyridine-2-carboxamide]",1800
11,"O=C(NC(c1cccc(F)c1F)C1(O)CCC(F)(F)CC1)c1nccc(C(F)(F)F)c1Cl (single isomer, unassigned) [Compound 164, 3-chloro-N-[(4,4-difluoro-1-hydroxycyclohexyl)(2,3-difluorophenyl)methyl]-4-(trifluoromethyl)pyridine-2-carboxamide]",120
12,"O=C(NC(c1cccc(F)c1F)C1(O)CCC(F)(F)CC1)c1ccnc(C(F)(F)F)c1Cl (single isomer, unassigned) [Compound 165, 3-chloro-N-[(4,4-difluoro-1-hydroxycyclohexyl)(2,3-difluorophenyl)methyl]-2-(trifluromethyl)pyridine-4-carboxamide]",210
13,"O=C(NC(c1cccc(Cl)c1)C1(O)CCC(F)(F)CC1)c1nccc(C(F)(F)F)c1Cl (single isomer, unassigned) [Compound 166, 3-chloro-N-[(3-chlorophenyl)(4,4-difluoro-1-hydroxycyclohexyl)methyl]-4-(trifluoromethyl)pyridine-2-carboxamide]",180
14,"O=C(NC(c1cccc(Cl)c1)C1(O)CCC(F)(F)CC1)c1ccnc(C(F)(F)F)c1Cl (single isomer, unassigned) [Compound 167, 3-chloro-N-[(3-chlorophenyl)(4,4-difluoro-1-hydroxycyclohexyl)methyl]-2-(trifluoromethyl)pyridine-4-carboxamide]",210
15,"O=C(NC(c1cccc(Cl)c1F)C1(O)CCC(F)(F)CC1)c1nccc(C(F)(F)F)c1Cl (single isomer, unassigned) [Compound 168, 3-chloro-N-[(3-chloro-2-fluorophenyl)(4,4-difluoro-1-hydroxycyclohexyl)methyl]-4-(trifluoromethyl)pyridine-2-carboxamide]",57
16,"O=C(NC(c1cccc(Cl)c1F)C1(O)CCC(F)(F)CC1)c1ccnc(C(F)(F)F)c1Cl (single isomer, unassigned) [Compound 169, 3-chloro-N-[(3-chloro-2-fluorophenyl)(4,4-difluoro-1-hydroxycyclohexyl)methyl]-2-(trifluoromethyl)pyridine-4-carboxamide]",95
17,"O=C(NC(c1cccc(F)c1Cl)C1(O)CCC(F)(F)CC1)c1nccc(C(F)(F)F)c1Cl (single isomer, unassigned) [Compound 177, 3-chloro-N-[(2-chloro-3-fluorophenyl)(4,4-difluoro-1-hydroxycyclohexyl)methyl]-4-(trifluoromethyl)pyridine-2-carboxamide]",100
18,"O=C(NC(c1cccc(F)c1Cl)C1(O)CCC(F)(F)CC1)c1ccnc(C(F)(F)F)c1Cl (single isomer, unassigned) [Compound 178, 3-chloro-N-[(2-chloro-3-fluorophenyl)(4,4-difluoro-1-hydroxycyclohexyl)methyl]-2-(trifluoromethyl)pyridine-4-carboxamide]",130
19,"O=C(NC(c1cccc(Cl)c1)C1(O)CCCC1)c1ccnc(C(F)(F)F)c1Cl (single isomer, unassigned) [Compound 185, 3-chloro-N-[(3-chlorophenyl)(1-hydroxycyclopentyl)methyl]-2-(trifluoromethyl)pyridine-4-carboxamide]",140
20,"O=C(NC(c1cccc(-c2ccccn2)c1)C1(O)CCC(F)(F)CC1)c1nccc(C(F)(F)F)c1Cl (single isomer, unassigned) [Compound 188, 3-chloro-N-{(4,4-difluoro-1-hydroxycyclohexyl)[3-(pyridin-2-yl)phenyl]methyl]-4-(trifluoromethyl)pyridine-2-carboxamide]",73
21,"O=C(NC(c1cccc(-c2ccccn2)c1)C1(O)CCC(F)(F)CC1)c1ccnc(C(F)(F)F)c1Cl (single isomer, unassigned) [Compound 189, 3-chloro-N-{(4,4-difluoro-1-hydroxycyclohexyl)[3-(pyridin-2-yl)phenyl]methyl}-2-(trifluoromethyl)pyridine-4-carboxamide]",200
22,"O=C(NC(c1cccc(-c2ccccn2)c1)C1(O)CCC(F)(F)CC1)c1cc(C(F)(F)F)ccc1Cl (single isomer, unassigned) [Compound 190, 2-chloro-N-[(4,4-difluoro-1-hydroxycyclohexyl)[3-(pyridin-2-yl)phenyl]methyl}-5-(trifluoromethyl)benzamide]",490
